{"source": "patent US20130190368A1", "about": "“NOVEL POLYMORPHS OF FEBUXOSTAT” (HETERO RESEARCH FOUNDATION, priority 2010, published 2013)", "origin": "cited, not measured here", "conditions": "compared to allopurinol"}
{"smiles": "Cc1nc(-c2ccc(OCC(C)C)c(C#N)c2)sc1C(=O)O", "note": "[febuxostat, 2-[3-cyano-4-(2-methylpropoxy)phenyl]-4-methyl-5-thiazolecarboxylic acid]", "values": [{"measurement": "amount of initial gout flares or surface area of gout tophi", "value": "no difference"}, {"measurement": "individuals with decreased levels of uric acid", "value": "more individuals treated with febuxostat had decreased levels of uric acid"}]}
